Measurements: patent publication US10508085B2, “Compounds and methods for IDO and TDO modulation, and indications therefor” (Plexxikon Inc., priority 2016, dated 2019)

What was measured:
[1] = target: T1, Human Tryptophan 2,3-dioxygenase (TDO) (Homo sapiens, UniProt P48775); assay: Human TDO enzymatic assay (kynurenine level); type: biochemical; settings: 1 nM TDO, 350 μM L-Trp; geometric mean; read-out: TDO GMean: IC50 (μM) (Biochemical Assay)
T1 construct: His tag (N); made in house; host or cells: E. coli
T1 sequence (P48775 whole entry): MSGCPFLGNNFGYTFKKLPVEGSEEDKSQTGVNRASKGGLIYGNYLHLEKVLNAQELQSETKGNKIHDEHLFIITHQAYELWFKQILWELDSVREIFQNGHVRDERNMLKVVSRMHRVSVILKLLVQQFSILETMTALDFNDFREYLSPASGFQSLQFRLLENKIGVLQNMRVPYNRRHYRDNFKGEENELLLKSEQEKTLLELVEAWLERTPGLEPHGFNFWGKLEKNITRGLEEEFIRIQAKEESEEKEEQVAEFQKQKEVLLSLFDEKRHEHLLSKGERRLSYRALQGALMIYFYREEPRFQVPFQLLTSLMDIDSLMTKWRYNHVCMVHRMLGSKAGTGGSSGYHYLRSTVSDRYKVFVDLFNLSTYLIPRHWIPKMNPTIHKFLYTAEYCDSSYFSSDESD
How it was run: (§1)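 Kynurenine formed is measured after TCA quench and 50 °C hydrolysis, with % inhibition against full-reaction and no-enzyme controls (5% DMSO). IDO: 6 nM enzyme, 10 μM L-Trp, 5 μM methylene blue, 20 min; TDO: 1 nM, 350 μM L-Trp, 0.4 μM methylene blue, 70 min; both pH 6.5, room temp, E. coli-expressed His-tagged.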

[2] = target: T2, Human Indoleamine 2,3-dioxygenase (IDO) (Homo sapiens, UniProt P14902); assay: Human IDO enzymatic assay (kynurenine level); type: biochemical; settings: 6 nM IDO, 10 μM L-Trp; geometric mean; read-out: IDO1 GMean: IC50 (μM) (Biochemical Assay)
T2 construct: His tag (N); made in house; host or cells: E. coli
T2 sequence (P14902 whole entry): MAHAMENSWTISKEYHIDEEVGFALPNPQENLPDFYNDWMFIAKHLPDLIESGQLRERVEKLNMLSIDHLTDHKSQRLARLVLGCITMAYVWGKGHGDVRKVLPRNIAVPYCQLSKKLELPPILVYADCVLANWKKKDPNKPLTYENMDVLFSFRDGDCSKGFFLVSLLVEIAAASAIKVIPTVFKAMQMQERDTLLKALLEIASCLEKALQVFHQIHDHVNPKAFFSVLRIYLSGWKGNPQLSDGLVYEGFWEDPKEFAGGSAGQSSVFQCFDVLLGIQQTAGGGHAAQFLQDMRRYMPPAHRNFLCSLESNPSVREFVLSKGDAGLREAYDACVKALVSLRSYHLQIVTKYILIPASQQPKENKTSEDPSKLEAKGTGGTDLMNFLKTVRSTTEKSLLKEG
How it was run: as §1

[3] = target: T3, human IDO (IDO1-expressing HEK293 cells) (Homo sapiens, UniProt P14902); assay: Cell based kynurenine assay, IDO1-expressing HEK293 cell clones; settings: IDO1-expressing HEK293 cells, 24 hours, geometric mean; read-out: HEK293 IDO1 Kynurenine GMean IC50 (μM) (Cellular Assay)
T3 construct: expressed in transfected cells
T3 sequence (P14902 whole entry): as above
How it was run: (§2)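 Kynurenine in culture supernatant read after 24 h compound exposure of HEK293 cells stably expressing human IDO1 or TDO. IC50 from nonlinear regression of % inhibition relative to 0.2% DMSO cell (high) and media-only (low) controls.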

[4] = target: T4, human TDO (TDO-expressing HEK293 cells) (Homo sapiens, UniProt P48775); assay: Cell based kynurenine assay, TDO-expressing HEK293 cell clones; settings: TDO-expressing HEK293 cells, 24 hours, geometric mean; read-out: HEK293 TDO Kynurenine GMean IC50 (μM) (Cellular Assay)
T4 construct: expressed in transfected cells
T4 sequence (P48775 whole entry): as the sequence (P48775 whole entry) above
How it was run: as §2

Row | IC50 [1] [µM] | IC50 [2] [µM] | IC50 [3] [µM] | IC50 [4] [µM] | SMILES
1 | 0.0001 to 10 | 0.0001 to 10 | 0.0001 to 10 | 0.0001 to 10 | CC(C)(C1CCN(C(=O)CC#N)CC1)[C@H](O)c1cc(Cl)cc2cn[nH]c12 [Compound P-0534, (S)-3-(4-(1-(5-chloro-1H-indazol-7-yl)-1-hydroxy-2-methylpropan-2-yl)piperidin-1-yl)-3-oxopropanenitrile]
2 | 0.0001 to 10 | 0.0001 to 10 | 0.0001 to 10 | 0.0001 to 10 | CC(C)(C1CCN(C(=O)CO)CC1)[C@H](O)c1cc(Cl)cc2cn[nH]c12 [Compound P-0535, (S)-1-(4-(1-(5-chloro-1H-indazol-7-yl)-1-hydroxy-2-methylpropan-2-yl)piperidin-1-yl)-2-hydroxyethan-1-one]
3 | 0.0001 to 10 | 0.0001 to 10 | 0.0001 to 10 | 0.0001 to 10 | CC(C)(C1CCN(C(=O)c2cccnc2)CC1)[C@H](O)c1cc(Cl)cc2cn[nH]c12 [Compound P-0536, (S)-(4-(1-(5-chloro-1H-indazol-7-yl)-1-hydroxy-2-methylpropan-2-yl)piperidin-1-yl)(pyridin-3-yl)methanone]
4 | 0.0001 to 10 | 0.0001 to 10 | 0.0001 to 10 | 0.0001 to 10 | CC(C)(C1CCN(C(=O)c2ccc(C(F)(F)F)nc2)CC1)[C@H](O)c1cc(Cl)cc2cn[nH]c12 [Compound P-0537, (S)-(4-(1-(5-chloro-1H-indazol-7-yl)-1-hydroxy-2-methylpropan-2-yl)piperidin-1-yl)(6-(trifluoromethyl)pyridin-3-yl)methanone]
5 | 0.0001 to 10 | 0.0001 to 10 | 0.0001 to 10 | 0.0001 to 10 | CC(C)(C1CCN(C(=O)c2ccc(N3CCOCC3)nc2)CC1)[C@H](O)c1cc(Cl)cc2cn[nH]c12 [Compound P-0538, (S)-(4-(1-(5-chloro-1H-indazol-7-yl)-1-hydroxy-2-methylpropan-2-yl)piperidin-1-yl)(6-morpholinopyridin-3-yl)methanone]
6 | 0.0001 to 10 | 0.0001 to 10 | 0.0001 to 10 | 0.0001 to 10 | CC(C)(C1CCN(C(=O)C2C(C)(C)C2(C)C)CC1)[C@H](O)c1cc(Cl)cc2cn[nH]c12 [Compound P-0539, (S)-(4-(1-(5-chloro-1H-indazol-7-yl)-1-hydroxy-2-methylpropan-2-yl)piperidin-1-yl)(2,2,3,3-tetramethylcyclopropyl) methanone]
7 | 0.0001 to 10 | 0.0001 to 10 | 0.0001 to 10 | 0.0001 to 10 | COC(=O)N1CCC(C(C)(C)[C@H](O)c2cc(Cl)cc3cn[nH]c23)CC1 [Compound P-0540, methyl (S)-4-(1-(5-chloro-1H-indazol-7-yl)-1-hydroxy-2-methylpropan-2-yl)piperidine-1-carboxylate]
8 | 0.0001 to 10 | 0.0001 to 10 | 0.0001 to 10 | 0.0001 to 10 | CCOC(=O)N1CCC(C(C)(C)[C@H](O)c2cc(Cl)cc3cn[nH]c23)CC1 [Compound P-0541, ethyl (S)-4-(1-(5-chloro-1H-indazol-7-yl)-1-hydroxy-2-methylpropan-2-yl)piperidine-1-carboxylate]

The remaining lines, values behind:

Row | SMILES | IC50 [1] [µM] | IC50 [2] [µM] | IC50 [3] [µM] | IC50 [4] [µM]
9 | CC(C)(C1CCN(C(=O)Cc2ccc(F)c(Cl)c2)CC1)[C@H](O)c1cc(Cl)cc2cn[nH]c12 [Compound P-0519, (S)-1-(4-(1-(5-chloro-1H-indazol-7-yl)-1-hydroxy-2-methylpropan-2-yl)piperidin-1-yl)-2-(3-chloro-4-fluorophenyl)ethan-1-one] | 0.0001 to 10 | 0.0001 to 10 | 0.0001 to 10 | 0.0001 to 10
10 | O=C(Cc1cccc(Cl)c1)N1CCC(C(F)(F)C(O)c2cc(Cl)cc3cn[nH]c23)CC1 (centres unmarked) [Compound P-0520, 1-(4-(2-(5-chloro-1H-indazol-7-yl)-1,1-difluoro-2-hydroxyethyl)piperidin-1-yl)-2-(3-chlorophenyl) ethan-1-one] | 0.0001 to 10 | 0.0001 to 10 | 0.0001 to 10 | 0.0001 to 10
11 | COc1ccc(CC(=O)N2CCC(C(F)(F)C(O)c3cc(Cl)cc4cn[nH]c34)CC2)cn1 (centres unmarked) [Compound P-0521, 1-(4-(2-(5-chloro-1H-indazol-7-yl)-1,1-difluoro-2-hydroxyethyl)piperidin-1-yl)-2-(6-methoxypyridin-3-yl)ethan-1-one] | 0.0001 to 10 | 0.0001 to 10 | 0.0001 to 10 | 0.0001 to 10
12 | COc1cccc(CC(=O)N2CCC(C(F)(F)C(O)c3cc(Cl)cc4cn[nH]c34)CC2)c1 (centres unmarked) [Compound P-0522, 1-(4-(2-(5-chloro-1H-indazol-7-yl)-1,1-difluoro-2-hydroxyethyl)piperidin-1-yl)-2-(3-methoxyphenyl) ethan-1-one] | 0.0001 to 10 | 0.0001 to 10 | 0.0001 to 10 | 0.0001 to 10
13 | O=C(Cc1ccc(Cl)c(F)c1)N1CCC(C(F)(F)C(O)c2cc(Cl)cc3cn[nH]c23)CC1 (centres unmarked) [Compound P-0523, 1-(4-(2-(5-chloro-1H-indazol-7-yl)-1,1-difluoro-2-hydroxyethyl)piperidin-1-yl)-2-(4-chloro-3-fluorophenyl)ethan-1-one] | 0.0001 to 10 | 0.0001 to 10 | 0.0001 to 10 | 0.0001 to 10
14 | O=C(Cc1ccc(F)c(Cl)c1)N1CCC(C(F)(F)C(O)c2cc(Cl)cc3cn[nH]c23)CC1 (centres unmarked) [Compound P-0524, 1-(4-(2-(5-chloro-1H-indazol-7-yl)-1,1-difluoro-2-hydroxyethyl)piperidin-1-yl)-2-(3-chloro-4-fluorophenyl) ethan-1-one] | 0.0001 to 10 | 0.0001 to 10 | 0.0001 to 10 | 0.0001 to 10
15 | O=C(Cc1ccnc(Cl)c1)N1CCC(C(F)(F)C(O)c2cc(Cl)cc3cn[nH]c23)CC1 (centres unmarked) [Compound P-0525, 1-(4-(2-(5-chloro-1H-indazol-7-yl)-1,1-difluoro-2-hydroxyethyl)piperidin-1-yl)-2-(2-chloropyridin-4-yl)ethan-1-one] | 0.0001 to 10 | 0.0001 to 10 | 0.0001 to 10 | 0.0001 to 10
16 | COc1cc(CC(=O)N2CCC(C(F)(F)C(O)c3cc(Cl)cc4cn[nH]c34)CC2)ccn1 (centres unmarked) [Compound P-0526, 1-(4-(2-(5-chloro-1H-indazol-7-yl)-1,1-difluoro-2-hydroxyethyl)piperidin-1-yl)-2-(2-methoxypyridin-4-yl)ethan-1-one] | 0.0001 to 10 | 0.0001 to 10 | 0.0001 to 10 | 0.0001 to 10
17 | CC(C)(C)OC(=O)N1CCC(C(F)(F)[C@H](O)c2c3c(cc4cn[nH]c24)CC3)CC1 [Compound P-0527, tert-butyl (R)-4-(2-(5,6-dihydro-1H-cyclobuta[f]indazol-7-yl)-1,1-difluoro-2-hydroxyethyl) piperidine-1-carboxylate] | 10 to 100 | 0.0001 to 10 | 0.0001 to 10 | 0.0001 to 10
18 | CC(C)(C)OC(=O)N1CCC(C(F)(F)[C@@H](O)c2c3c(cc4cn[nH]c24)CC3)CC1 [Compound P-0528, tert-butyl (S)-4-(2-(5,6-dihydro-1H-cyclobuta[f]indazol-7-yl)-1,1-difluoro-2-hydroxyethyl) piperidine-1-carboxylate] | > 200 | 0.0001 to 10 | 0.0001 to 10 | 0.0001 to 10
19 | CC(C)(C1CCN(C(=O)C2CC2)CC1)[C@H](O)c1cc(Cl)cc2cn[nH]c12 [Compound P-0529, (S)-(4-(1-(5-chloro-1H-indazol-7-yl)-1-hydroxy-2-methylpropan-2-yl)piperidin-1-yl)(cyclopropyl) methanone] | 0.0001 to 10 | 0.0001 to 10 | 0.0001 to 10 | 0.0001 to 10
20 | CC(C)(C1CCN(C(=O)CC2CC2)CC1)[C@H](O)c1cc(Cl)cc2cn[nH]c12 [Compound P-0530, (S)-1-(4-(1-(5-chloro-1H-indazol-7-yl)-1-hydroxy-2-methylpropan-2-yl)piperidin-1-yl)-2-cyclopropylethan-1-one] | 0.0001 to 10 | 0.0001 to 10 | 0.0001 to 10 | 0.0001 to 10
21 | CC(C)(C1CCN(C(=O)CC(F)(F)F)CC1)[C@H](O)c1cc(Cl)cc2cn[nH]c12 [Compound P-0531, (S)-1-(4-(1-(5-chloro-1H-indazol-7-yl)-1-hydroxy-2-methylpropan-2-yl)piperidin-1-yl)-3,3,3-trifluoropropan-1-one] | 0.0001 to 10 | 0.0001 to 10 | 0.0001 to 10 | 0.0001 to 10
22 | CC(C)(C1CCN(C(=O)CC2CCOCC2)CC1)[C@H](O)c1cc(Cl)cc2cn[nH]c12 [Compound P-0532, (S)-1-(4-(1-(5-chloro-1H-indazol-7-yl)-1-hydroxy-2-methylpropan-2-yl)piperidin-1-yl)-2-(tetrahydro-2H-pyran-4-yl)ethan-1-one] | 0.0001 to 10 | 0.0001 to 10 | 0.0001 to 10 | 0.0001 to 10
23 | COCC(=O)N1CCC(C(C)(C)[C@H](O)c2cc(Cl)cc3cn[nH]c23)CC1 [Compound P-0533, (S)-1-(4-(1-(5-chloro-1H-indazol-7-yl)-1-hydroxy-2-methylpropan-2-yl)piperidin-1-yl)-2-methoxyethan-1-one] | 0.0001 to 10 | 0.0001 to 10 | 0.0001 to 10 | 0.0001 to 10
